The term IC50 denotes the concentration that inhibits the measured activity by half. Low readings indicate greater potency in that assay, high ones weaker potency in that assay.

Where a SMILES comes first, the peptide text is derived from it. Bridges are numbered along the chain shown (N, C = ends). [ ]: non-standard residue; d: D form. Nle = CCCC[C@H](N)C(=O)O; Orn = NCCC[C@H](N)C(=O)O; Dab = NCC[C@H](N)C(=O)O; Dap = NC[C@H](N)C(=O)O

Experimental findings from patent publication US20240182531A1, “KV1.3 Blockers” (priority 2021, published 2024) are described below.

T1 sequence (P22001 whole entry): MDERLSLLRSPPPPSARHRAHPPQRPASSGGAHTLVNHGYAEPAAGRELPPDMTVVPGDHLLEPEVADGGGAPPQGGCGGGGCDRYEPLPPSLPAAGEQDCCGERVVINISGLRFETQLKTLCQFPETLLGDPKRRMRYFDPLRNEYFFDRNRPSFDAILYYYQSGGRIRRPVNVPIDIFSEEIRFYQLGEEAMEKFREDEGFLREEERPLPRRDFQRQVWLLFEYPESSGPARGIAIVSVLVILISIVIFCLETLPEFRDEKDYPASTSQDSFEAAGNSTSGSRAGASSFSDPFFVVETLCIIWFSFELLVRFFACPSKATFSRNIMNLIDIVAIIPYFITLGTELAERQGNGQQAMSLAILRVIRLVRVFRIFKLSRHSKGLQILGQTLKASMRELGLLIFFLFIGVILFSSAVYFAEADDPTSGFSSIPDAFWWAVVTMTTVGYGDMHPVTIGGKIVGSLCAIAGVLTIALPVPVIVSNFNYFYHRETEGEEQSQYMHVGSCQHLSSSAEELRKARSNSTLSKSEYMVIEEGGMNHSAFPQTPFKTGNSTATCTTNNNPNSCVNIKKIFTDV

This test has as its target T1, human Kv1.3 voltage-gated K+ channel (Homo sapiens, UniProt P22001).
T1 construct: host or cells: CHO-DUKX
The test is described as follows: Kv1.3 blocker activity in FLIPR thallium assay. The class given is cell-based. Here is the method: A human Kv1.3 voltage-gated K+ channel cell line was purchased from Perkin Elmer (#TDS-AX-010-C-1). The cell line is based on CHO-DUKX cells stably transfected with the human Kv1.3 voltage-gated K+ channel.
The cell line was grown in MEMα with nucleotides, GlutaMAX (Gibco #32571028), 10% Foetal Bovine Serum (FBS), 0.4 mg/ml Geneticin, 100 units/ml Penicillin, and 100 μg/ml Streptomycin and seeded at 10.000 cells/well in black poly-D-lysine-coated 96 well plates.
The FluxOR™ Potassium Ion Channel Assay (Invitrogen #F10016) was used to quantitate flux of thallium ions into the cells as a response to Kv1.3 activation with a stimulus buffer causes depolarization of the cell membrane, thereby generating a fluorescent signal, proportional to channel activity. The assay was performed as described by the assay kit manufacturer including a compound pre-incubation step (30 min, 37° C., 5% CO2) in assay buffer containing 0.02% W/v casein from bovine milk (Sigma #C4765) prior to cell membrane depolarization using a final stimuli buffer composition corresponding to 0.2× FluxOR™ chloride-free buffer, 5 mM K2SO4, 1 mM Tl2SO4. The fluorescence responses were recorded and quantified (maximum response at 50 s, 37° C.) using the FLIPR® Tetra High Throughput Screening System (Molecular Devices, Inc.).
IC50 can be regarded as a measure of potency of inhibition for the respective compound. The IC50 value is a measure of the concentration of an inhibitor required to achieve half of that compound's maximal inhibition of ion channel activity in a given assay.
Compound `CCCC[C@H](NC(=O)[C@@H]1CCCN1)C(=O)N[C@@H](CCC(=O)O)C(=O)N[C@@H](CCCC)C(=O)N[C@@H](CCCNC(=N)N)C(=O)N[C@H]1CSSC[C@@H]2NC(=O)[C@H](CCCCN)NC(=O)CNC(=O)[C@H](Cc3ccccc3)NC(=O)[C@H]([C@@H](C)CC)NC(=O)[C@H](CO)NC(=O)CNC(=O)[C@H]([C@@H](C)CC)NC(=O)[C@H](C)NC(=O)[C@H](C)NC(=O)[C@H](CC(C)C)NC(=O)[C@@H]3CSSC[C@@H](C(=O)N[C@@H](Cc4ccc(O)cc4)C(=O)N4CCC[C@H]4C(=O)N[C@@H](CCCNC(=N)N)C(=O)O)NC(=O)[C@H](CCCCN)NC(=O)[C@H](CSSC[C@H](NC(=O)[C@H](CCC(=O)O)NC(=O)[C@H](C(C)C)NC(=O)[C@H](CO)NC(=O)[C@H](C)NC(=O)[C@H](CCCN)NC1=O)C(=O)N[C@@H](CCCCN)C(=O)N[C@@H](CCC(N)=O)C(=O)N[C@@H](CCCCN)C(=O)N3)NC(=O)[C@H](CCCCN)NC(=O)[C@H](CCCCN)NC(=O)[C@H](CC(N)=O)NC(=O)[C@H](CCCC)NC2=O` [compound 2] (H-P[Nle]E[Nle]RC[Orn]ASVECKQKCLAAIGSIFGKC[Nle]NKKCKCYPR-OH; disulfide 6-27, 12-32, 16-34) came in with an IC50 of 0.12 nM.
The value for `CCCC[C@H](NC(=O)[C@@H]1CCCN1)C(=O)N[C@@H](CCC(=O)O)C(=O)N[C@@H](CCCC)C(=O)N[C@@H](CCCNC(=N)N)C(=O)N[C@H]1CSSC[C@@H]2NC(=O)[C@H](CCCCN)NC(=O)CNC(=O)[C@H](Cc3ccccc3)NC(=O)[C@H]([C@@H](C)CC)NC(=O)[C@H](CO)NC(=O)CNC(=O)[C@H]([C@@H](C)CC)NC(=O)[C@H](C)NC(=O)[C@H](C)NC(=O)[C@H](CC(C)C)NC(=O)[C@@H]3CSSC[C@@H](C(=O)N[C@@H](Cc4ccc(O)cc4)C(=O)N4CCC[C@H]4C(=O)N[C@@H](CCCNC(=N)N)C(=O)O)NC(=O)[C@H](CCCCN)NC(=O)[C@H](CSSC[C@H](NC(=O)[C@H](CCC(=O)O)NC(=O)[C@H](C(C)C)NC(=O)[C@H](CO)NC(=O)[C@H](C)NC(=O)[C@H](Cc4ccc(O)cc4)NC1=O)C(=O)N[C@@H](CCCCN)C(=O)N[C@@H](CCC(N)=O)C(=O)N[C@@H](CCCCN)C(=O)N3)NC(=O)[C@H](CCCCN)NC(=O)[C@H](CCCCN)NC(=O)[C@H](CC(N)=O)NC(=O)[C@H](CCCC)NC2=O` [compound 5] (H-P[Nle]E[Nle]RCYASVECKQKCLAAIGSIFGKC[Nle]NKKCKCYPR-OH; disulfide 6-27, 12-32, 16-34) was 0.18 nM; that for `CCCC[C@H](NC(=O)[C@@H]1CCCN1)C(=O)N[C@@H](CCC(=O)O)C(=O)N[C@@H](CCCC)C(=O)N[C@@H](CCCNC(=N)N)C(=O)N[C@H]1CSSC[C@@H]2NC(=O)[C@H](CCCCN)NC(=O)CNC(=O)[C@H](Cc3ccccc3)NC(=O)[C@H]([C@@H](C)CC)NC(=O)[C@H](CO)NC(=O)CNC(=O)[C@H]([C@@H](C)CC)NC(=O)[C@H](C)NC(=O)[C@H](C)NC(=O)[C@H](CC(C)C)NC(=O)[C@@H]3CSSC[C@@H](C(=O)N[C@@H](Cc4ccc(O)cc4)C(=O)N4CCC[C@H]4C(=O)N[C@@H](CCCNC(=N)N)C(=O)O)NC(=O)[C@H](CCCCN)NC(=O)[C@H](CSSC[C@H](NC(=O)[C@H](CCC(=O)O)NC(=O)[C@H](C(C)C)NC(=O)[C@H](CCCN)NC(=O)[C@H](C)NC(=O)[C@H](CO)NC1=O)C(=O)N[C@@H](CCCCN)C(=O)N[C@@H](CCC(N)=O)C(=O)N[C@@H](CCCCN)C(=O)N3)NC(=O)[C@H](CCCCN)NC(=O)[C@H](CCCCN)NC(=O)[C@H](CC(N)=O)NC(=O)[C@H](CCCC)NC2=O` [compound 6] (H-P[Nle]E[Nle]RCSA[Orn]VECKQKCLAAIGSIFGKC[Nle]NKKCKCYPR-OH; disulfide 6-27, 12-32, 16-34) was 33 nM.
For `CCCC[C@H](NC(=O)[C@@H]1CCCN1)C(=O)N[C@@H](CCC(=O)O)C(=O)N[C@@H](CCCC)C(=O)N[C@@H](CCCNC(=N)N)C(=O)N[C@H]1CSSC[C@@H]2NC(=O)[C@H](CCCCN)NC(=O)CNC(=O)[C@H](Cc3ccccc3)NC(=O)[C@H]([C@@H](C)CC)NC(=O)[C@H](CO)NC(=O)CNC(=O)[C@H]([C@@H](C)CC)NC(=O)[C@H](C)NC(=O)[C@H](C)NC(=O)[C@H](CC(C)C)NC(=O)[C@@H]3CSSC[C@@H](C(=O)N[C@@H](Cc4ccc(O)cc4)C(=O)N4CCC[C@H]4C(=O)N[C@@H](CCCNC(=N)N)C(=O)O)NC(=O)[C@H](CCCCN)NC(=O)[C@H](CSSC[C@H](NC(=O)[C@H](CCC(=O)O)NC(=O)[C@H](C(C)C)NC(=O)[C@H](CO)NC(=O)[C@H](C)NC(=O)[C@H](CN)NC1=O)C(=O)N[C@@H](CCCCN)C(=O)N[C@@H](CCC(N)=O)C(=O)N[C@@H](CCCCN)C(=O)N3)NC(=O)[C@H](CCCCN)NC(=O)[C@H](CCCCN)NC(=O)[C@H](CC(N)=O)NC(=O)[C@H](CCCC)NC2=O` [compound 7] (H-P[Nle]E[Nle]RC[Dap]ASVECKQKCLAAIGSIFGKC[Nle]NKKCKCYPR-OH; disulfide 6-27, 12-32, 16-34) the value was 0.28 nM.
For `CCCC[C@H](NC(=O)[C@@H]1CCCN1)C(=O)N[C@@H](CCC(=O)O)C(=O)N[C@@H](CCCC)C(=O)N[C@@H](CCCNC(=N)N)C(=O)N[C@H]1CSSC[C@@H]2NC(=O)[C@H](CCCCN)NC(=O)CNC(=O)[C@H](Cc3ccccc3)NC(=O)[C@H]([C@@H](C)CC)NC(=O)[C@H](CO)NC(=O)CNC(=O)[C@H]([C@@H](C)CC)NC(=O)[C@H](C)NC(=O)[C@H](C)NC(=O)[C@H](CC(C)C)NC(=O)[C@@H]3CSSC[C@@H](C(=O)N[C@@H](Cc4ccc(O)cc4)C(=O)N4CCC[C@H]4C(=O)N[C@@H](CCCNC(=N)N)C(=O)O)NC(=O)[C@H](CCCCN)NC(=O)[C@H](CSSC[C@H](NC(=O)[C@H](CCC(=O)O)NC(=O)[C@H](C(C)C)NC(=O)[C@H](CN)NC(=O)[C@H](C)NC(=O)[C@H](CO)NC1=O)C(=O)N[C@@H](CCCCN)C(=O)N[C@@H](CCC(N)=O)C(=O)N[C@@H](CCCCN)C(=O)N3)NC(=O)[C@H](CCCCN)NC(=O)[C@H](CCCCN)NC(=O)[C@H](CC(N)=O)NC(=O)[C@H](CCCC)NC2=O` [compound 8] (H-P[Nle]E[Nle]RCSA[Dap]VECKQKCLAAIGSIFGKC[Nle]NKKCKCYPR-OH; disulfide 6-27, 12-32, 16-34) the value was 0.26 nM.
Consider `CCCC[C@H](NC(=O)[C@@H]1CCCN1)C(=O)N[C@@H](CCC(=O)O)C(=O)N[C@@H](CCCC)C(=O)N[C@@H](CCCNC(=N)N)C(=O)N[C@H]1CSSC[C@@H]2NC(=O)[C@H](CCCCN)NC(=O)CNC(=O)[C@H](Cc3ccccc3)NC(=O)[C@H]([C@@H](C)CC)NC(=O)[C@H](CO)NC(=O)CNC(=O)[C@H]([C@@H](C)CC)NC(=O)[C@H](C)NC(=O)[C@H](C)NC(=O)[C@H](CC(C)C)NC(=O)[C@@H]3CSSC[C@@H](C(=O)N[C@@H](Cc4ccc(O)cc4)C(=O)N4CCC[C@H]4C(=O)N[C@@H](CCCNC(=N)N)C(=O)O)NC(=O)[C@H](CCCCN)NC(=O)[C@H](CSSC[C@H](NC(=O)[C@H](CCC(=O)O)NC(=O)[C@H](C(C)C)NC(=O)[C@H](CO)NC(=O)[C@H](C)NC(=O)[C@H](CCN)NC1=O)C(=O)N[C@@H](C)C(=O)N[C@@H](CCC(N)=O)C(=O)N[C@@H](CO)C(=O)N3)NC(=O)[C@H](CCCCN)NC(=O)CNC(=O)[C@H](CC(N)=O)NC(=O)[C@H](CCCC)NC2=O` [compound 9] (H-P[Nle]E[Nle]RC[Dab]ASVECAQSCLAAIGSIFGKC[Nle]NGKCKCYPR-OH; disulfide 6-27, 12-32, 16-34), for which the half-inhibitory concentration (IC50) was determined as 4.6 nM.
The value for `CCCC[C@H](NC(=O)[C@@H]1CCCN1)C(=O)N[C@@H](CCC(=O)O)C(=O)N[C@@H](CCCC)C(=O)N[C@@H](CCCNC(=N)N)C(=O)N[C@H]1CSSC[C@@H]2NC(=O)[C@H](CCCCN)NC(=O)CNC(=O)[C@H](Cc3ccccc3)NC(=O)[C@H]([C@@H](C)CC)NC(=O)[C@H](CO)NC(=O)CNC(=O)[C@H]([C@@H](C)CC)NC(=O)[C@H](C)NC(=O)[C@H](C)NC(=O)[C@H](CC(C)C)NC(=O)[C@@H]3CSSC[C@@H](C(=O)N[C@@H](Cc4ccc(O)cc4)C(=O)N4CCC[C@H]4C(=O)N[C@@H](CCCNC(=N)N)C(N)=O)NC(=O)[C@H](CCCCN)NC(=O)[C@H](CSSC[C@H](NC(=O)[C@H](CCC(=O)O)NC(=O)[C@H](C(C)C)NC(=O)[C@H](CO)NC(=O)[C@H](C)NC(=O)[C@H](CCN)NC1=O)C(=O)N[C@@H](C)C(=O)N[C@@H](CCC(N)=O)C(=O)N[C@@H](CO)C(=O)N3)NC(=O)[C@H](CCCCN)NC(=O)CNC(=O)[C@H](CC(N)=O)NC(=O)[C@H](CCCC)NC2=O` [compound 10] (H-P[Nle]E[Nle]RC[Dab]ASVECAQSCLAAIGSIFGKC[Nle]NGKCKCYPR-NH2; disulfide 6-27, 12-32, 16-34) was 0.33 nM.
